Source: patent publication US20100016294A1, “METHODS FOR REDUCING THE RISK OF AN ADVERSE DRUG I[…] A PATIENT SUFFERING FROM INSOMNIA” (QUESTCOR PHARMACEUTICALS, INC., priority 2008, published 2010)

Biological target: T1, CYP2B6 (Homo sapiens, UniProt P20813)
T1 sequence (P20813 1-491): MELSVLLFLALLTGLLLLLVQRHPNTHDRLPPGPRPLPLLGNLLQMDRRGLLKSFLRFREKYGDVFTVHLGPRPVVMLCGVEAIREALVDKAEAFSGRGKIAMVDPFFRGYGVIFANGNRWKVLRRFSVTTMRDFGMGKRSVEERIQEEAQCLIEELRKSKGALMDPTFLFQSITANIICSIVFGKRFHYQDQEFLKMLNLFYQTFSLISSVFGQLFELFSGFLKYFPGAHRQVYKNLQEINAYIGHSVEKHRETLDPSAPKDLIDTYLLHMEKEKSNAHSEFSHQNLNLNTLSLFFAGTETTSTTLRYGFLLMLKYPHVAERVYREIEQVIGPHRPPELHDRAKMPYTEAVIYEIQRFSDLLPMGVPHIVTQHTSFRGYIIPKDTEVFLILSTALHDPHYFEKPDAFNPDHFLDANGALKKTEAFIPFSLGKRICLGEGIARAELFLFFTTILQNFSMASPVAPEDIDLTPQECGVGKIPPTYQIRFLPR
Assay: Direct inhibition of CYP2B6 (Bupropion hydroxylase) activity in pooled human liver microsomes
Settings: pH 7.4, probe Bupropion (hydroxylation to hydroxyBupropion)
Description: The total amount of organic solvent was ≦1%. Each incubation included 0.1 M phosphate buffer (pH 7.4), substrate, inhibitor and microsomal protein in a final volume of approximately 0.5 mL. Reactions were initiated by addition of NADPH (1 mM final concentration) and incubated for the indicated times at 37° C. with gentle agitation.
Control incubations included positive inhibitor control samples for direct inhibition as well as samples without NADPH. All reactions were terminated by the addition of organic solvent, and internal standard was added (when appropriate), and samples were mixed and centrifuged at approximately 3000 rpm for 10 minutes. The organic layer was transferred to a clean tube and evaporated to dryness at about 40° C. under nitrogen. The sample was reconstituted and analyzed by LC MS/MS.
Incubations to determine CYP2B6-mediated conversion of Bupropion to hydroxyBupropion (OHBP) in microsomal preparations were terminated by addition of 2.5 mL isoamyl alcohol: ethyl acetate (1:100, v:v). The internal standard, hydroxyBupropion-d6, and a saturated sodium chloride solution (0.25 mL) were added to all samples. […]
Reaction velocities (V) were calculated using Equation 1:
V(nmol/min/mg)=calculated ng/mL×0.5mL/(MW ng/nmol)/min/mg Equation 1
Percentage of remaining activity was determined using the following equation: […]

S=P(N1CC1)(N1CC1)N1CC1 [Positive Control, ThioTEPA]
activity at 75 μM: 22.8%
